Test results: patent US20070219186A1, “Pyrazolo[1,5-A]pyrimidine derivatives and methods of use thereof” (priority 2006, published 2007)
Where two headings read alike, the source gives them in different places.

Target: T1, human B-Raf (Homo sapiens, UniProt P15056)
T1 construct: Flag; GST; made in house; host or cells: Sf9 insect cells (B-Raf); E. coli (MEK1-GST)
Experiment: B-Raf Kinase to MEK1 ELISA
Type: biochemical
Settings: for inhibition at 10 µM: read-out: % Inhib./10 uM
Outline: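 Read-out is a DELFIA europium signal from phospho-MEK1 (Ser217/221) antibody after capture of GST-MEK1 (50 nM final) on anti-GST plates. Phosphorylation comes from Sf9-expressed Flag/GST human B-Raf (~20 ng) with ATP/MgCl2, 60 min RT, pH 7.2 MOPS.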

[1] = median, cpd concentrations from 10 μM to 30 nM in half log dilutions, read-out: Median IC50

T1 sequence (P15056 whole entry): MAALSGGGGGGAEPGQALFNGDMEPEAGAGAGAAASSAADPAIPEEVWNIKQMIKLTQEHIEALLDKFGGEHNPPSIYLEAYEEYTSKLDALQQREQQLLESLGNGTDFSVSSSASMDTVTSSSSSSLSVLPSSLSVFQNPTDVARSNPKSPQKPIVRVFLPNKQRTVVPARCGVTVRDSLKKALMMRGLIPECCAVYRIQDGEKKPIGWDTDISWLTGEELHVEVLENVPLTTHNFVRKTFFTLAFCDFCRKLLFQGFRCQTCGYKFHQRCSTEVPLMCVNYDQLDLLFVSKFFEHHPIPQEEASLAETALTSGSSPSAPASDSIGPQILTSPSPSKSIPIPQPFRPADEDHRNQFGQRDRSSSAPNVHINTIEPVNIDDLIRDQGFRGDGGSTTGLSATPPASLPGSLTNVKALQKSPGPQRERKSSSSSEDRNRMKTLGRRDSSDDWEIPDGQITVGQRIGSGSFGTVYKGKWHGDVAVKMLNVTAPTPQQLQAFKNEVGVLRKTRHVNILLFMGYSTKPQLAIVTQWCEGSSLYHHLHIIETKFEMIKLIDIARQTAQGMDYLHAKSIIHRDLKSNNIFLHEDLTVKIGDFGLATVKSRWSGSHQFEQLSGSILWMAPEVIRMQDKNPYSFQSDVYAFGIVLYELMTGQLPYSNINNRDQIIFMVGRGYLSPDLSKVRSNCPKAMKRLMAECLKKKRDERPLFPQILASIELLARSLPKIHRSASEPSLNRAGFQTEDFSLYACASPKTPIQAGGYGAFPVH

| IC50 [1] [µM] | inhibition at 10 µM [%] | inhibition at 10 µM (single point assay, 10 uM) [%] | IC50 [µM] | Structure (SMILES) |
| --- | --- | --- | --- | --- |
| 8.6 | 49 |  |  | CCOC(=O)c1cnn2c(-c3cccc(NC(=O)Cc4cccc(C(F)(F)F)c4)c3)ccnc12 [Example 97, ethyl 7-[3-({[3-(trifluoromethyl)phenyl]acetyl}amino)phenyl]pyrazolo[1,5-a]pyrimidine-3-carboxylate] |
| > 10 | 15 |  |  | CCOC(=O)c1cnn2c(-c3cccc(NC(=O)Cc4cccc(C)c4)c3)ccnc12 [Example 98, ethyl 7-(3-{[(3-methylphenyl)acetyl]amino}phenyl)pyrazolo[1,5-a]pyrimidine-3-carboxylate] |
| > 10 | 13 |  |  | CCOC(=O)c1cnn2c(-c3cccc(NC(=O)Cc4cc(C(F)(F)F)cc(C(F)(F)F)c4)c3)ccnc12 [Example 99, ethyl 7-[3-({[3,5-bis(trifluoromethyl)phenyl]acetyl}amino)phenyl]pyrazolo[1,5-a]pyrimidine-3-carboxylate] |
| > 10 | 2 |  |  | CCOC(=O)c1cnn2c(-c3cccc(NC(=O)Cc4ccc5c(c4)OCO5)c3)ccnc12 [Example 100, ethyl 7-{3-[(1,3-benzodioxol-5-ylacetyl)amino]phenyl}pyrazolo[1,5-a]pyrimidine-3-carboxylate] |
| > 10 | 0 |  |  | CCOC(=O)c1cnn2c(-c3cccc(NC(=O)Cc4ccc(OC)c(C)c4)c3)ccnc12 [Example 101, ethyl 7-(3-{[(4-methoxy-3-methylphenyl)acetyl]amino}phenyl)pyrazolo[1,5-a]pyrimidine-3-carboxylate] |
| > 10 | 0 |  |  | CCOC(=O)c1cnn2c(-c3cccc(NC(=O)Cc4c(F)ccc(F)c4F)c3)ccnc12 [Example 102, ethyl 7-(3-{[(2,3,6-trifluorophenyl)acetyl]amino}phenyl)pyrazolo[1,5-a]pyrimidine-3-carboxylate] |
| 2.49 | 59 |  |  | CCOC(=O)c1cnn2c(-c3cccc(NC(=O)c4ccc(Cl)c(C(F)(F)F)c4)c3)ccnc12 [Example 103, ethyl 7-(3-{[4-chloro-3-(trifluoromethyl)benzoyl]amino}phenyl)pyrazolo[1,5-a]pyrimidine-3-carboxylate] |
| 10.1 |  | 1 |  | CCOC(=O)c1cnn2c(-c3cccc(NC(=O)c4cc(C(F)(F)F)ccc4C)c3)ccnc12 [Example 104, ethyl 7-(3-{[2-methyl-5-(trifluoromethyl)benzoyl]amino}phenyl)pyrazolo[1,5-a]pyrimidine-3-carboxylate] |
| > 10 | 37 |  |  | CCOC(=O)c1cnn2c(-c3cc(NC(=O)c4ccc(C)c(C(F)(F)F)c4)ccc3[N+](=O)[O-])ccnc12 [Example 105, ethyl 7-(5-{[4-methyl-3-(trifluoromethyl)benzoyl]amino}-2-nitrophenyl)pyrazolo[1,5-a]pyrimidine-3-carboxylate] |
| > 10 | 2 |  |  | CCOC(=O)c1cnn2c(-c3ccc(Cl)c(NC(=O)c4ccc(C)c(C(F)(F)F)c4)c3)ccnc12 [Example 106, ethyl 7-(4-chloro-3-{[4-methyl-3-(trifluoromethyl)benzoyl]amino}phenyl)pyrazolo[1,5-a]pyrimidine-3-carboxylate] |
| > 10 | 0 |  |  | CCOC(=O)c1cnn2c(-c3ccc(OC)c(NC(=O)c4ccc(C)c(C(F)(F)F)c4)c3)ccnc12 [Example 107, ethyl 7-(4-methoxy-3-{[4-methyl-3-(trifluoromethyl)benzoyl]amino}phenyl)pyrazolo[1,5-a]pyrimidine-3-carboxylate] |
| > 10 | 20 |  |  | CCOC(=O)c1cnn2c(-c3ccc(OCc4ccccc4)c(NC(=O)c4ccc(C)c(C(F)(F)F)c4)c3)ccnc12 [Example 108, ethyl 7-(4-(benzyloxy)-3-{[4-methyl-3-(trifluoromethyl)benzoyl]amino}phenyl)pyrazolo[1,5-a]pyrimidine-3-carboxylate] |
| > 10 | 24 |  |  | CN(C)CCCc1cc2nccc(-c3cccc(NC(=O)c4cccc(C(F)(F)F)c4)c3)n2n1 [Example 110, N-(3-{2-[3-(dimethylamino)propyl]pyrazolo[1,5-a]pyrimidin-7-yl}phenyl)-3-(trifluoromethyl)benzamide] |
| > 3 | 24 |  |  | O=C(Nc1cccc(-c2ccnc3cc(-c4ccccn4)nn23)c1)c1cccc(C(F)(F)F)c1 [Example 111, N-[3-(2-pyridin-2-ylpyrazolo[1,5-a]pyrimidin-7-yl)phenyl]-3-(trifluoromethyl)benzamide] |
| > 10 | 26 |  |  | Cc1cc2nccc(-c3cccc(NC(=O)c4cccc(C(F)(F)F)c4)c3)n2n1 [Example 112, N-[3-(2-methylpyrazolo[1,5-a]pyrimidin-7-yl)phenyl]-3-(trifluoromethyl)benzamide] |
| > 10 | 45 |  |  | O=C(Nc1cccc(-c2ccnc3cc(-c4ccco4)nn23)c1)c1cccc(C(F)(F)F)c1 [Example 113, N-{3-[2-(2-furyl)pyrazolo[1,5-a]pyrimidin-7-yl]phenyl}-3-(trifluoromethyl)benzamide] |
| > 10 | 24 |  |  | O=C(Nc1cccc(-c2ccnc3cc(-c4ccc(Cl)cc4)nn23)c1)c1cccc(C(F)(F)F)c1 [Example 115, N-{3-[2-(4-chlorophenyl)pyrazolo[1,5-a]pyrimidin-7-yl]phenyl}-3-(trifluoromethyl)benzamide] |
| > 10 | 31 |  |  | Cc1cc2nccc(-c3cccc(NC(=O)c4ccc(C)c(C(F)(F)F)c4)c3)n2n1 [Example 116, 4-methyl-N-[3-(2-methylpyrazolo[1,5-a]pyrimidin-7-yl)phenyl]-3-(trifluoromethyl)benzamide] |
| > 10 | 24 |  |  | Cc1ccc(C(=O)Nc2cccc(-c3ccnc4cc(-c5cccs5)nn34)c2)cc1C(F)(F)F [Example 117, 4-methyl-N-{3-[2-(2-thienyl)pyrazolo[1,5-a]pyrimidin-7-yl]phenyl}-3-(trifluoromethyl)benzamide] |
| > 10 | 22 |  |  | Cc1ccc(C(=O)Nc2cccc(-c3ccnc4cc(-c5ccc(Cl)cc5)nn34)c2)cc1C(F)(F)F [Example 118, N-{3-[2-(4-chlorophenyl)pyrazolo[1,5-a]pyrimidin-7-yl]phenyl}-4-methyl-3-(trifluoromethyl)benzamide] |
| > 10 | 29 |  |  | Cc1ccc(C(=O)Nc2cccc(-c3ccnc4cc(-c5ccccc5)nn34)c2)cc1C(F)(F)F [Example 119, 4-methyl-N-[3-(2-phenylpyrazolo[1,5-a]pyrimidin-7-yl)phenyl]-3-(trifluoromethyl)benzamide] |
| 0.12 | 92 |  |  | O=C(Nc1cccc(-c2ccnc3c(C(=O)NCCCn4ccnc4)cnn23)c1)Nc1ccc(Cl)c(C(F)(F)F)c1 [Example 120, 7-{3-[({[4-chloro-3-(trifluoromethyl)phenyl]amino}carbonyl)amino]phenyl}-N-[3-(1H-imidazol-1-yl)propyl]pyrazolo[1,5-a]pyrimidine-3-carboxamide] |
| 0.19 | 92 |  |  | COCCCNC(=O)c1cnn2c(-c3cccc(NC(=O)Nc4ccc(Cl)c(C(F)(F)F)c4)c3)ccnc12 [Example 121, 7-{3-[({[4-chloro-3-(trifluoromethyl)phenyl]amino}carbonyl)amino]phenyl}-N-(3-methoxypropyl)pyrazolo[1,5-a]pyrimidine-3-carboxamide] |
|  | 83 |  | 0.14 | CCN(CC)CCNC(=O)c1cnn2c(-c3cccc(NC(=O)Nc4ccc(Cl)c(C(F)(F)F)c4)c3)ccnc12 [Example 122, 7-{3-[({[4-chloro-3-(trifluoromethyl)phenyl]amino}carbonyl)amino]phenyl}-N-[2-(diethylamino)ethyl]pyrazolo[1,5-a]pyrimidine-3-carboxamide] |
|  | 93 |  | 0.12 | O=C(Nc1cccc(-c2ccnc3c(C(=O)NCCN4CCOCC4)cnn23)c1)Nc1ccc(Cl)c(C(F)(F)F)c1 [Example 123, 7-{3-[({[4-chloro-3-(trifluoromethyl)phenyl]amino}carbonyl)amino]phenyl}-N-(2-morpholin-4-ylethyl)pyrazolo[1,5-a]pyrimidine-3-carboxamide] |
| 0.9 | 67 |  |  | O=C(Nc1cccc(-c2ccnc3c(C(=O)OCC(F)(F)F)cnn23)c1)c1cccc(C(F)(F)F)c1 [Example 125, 2,2,2-trifluoroethyl 7-(3-{[3-(trifluoromethyl)benzoyl]amino}phenyl)pyrazolo[1,5-a]pyrimidine-3-carboxylate] |
| > 10 | 17 |  |  | O=C(Nc1cccc(-c2ccnc3c(C(=O)Oc4cccnc4)cnn23)c1)c1cccc(C(F)(F)F)c1 [Example 126, pyridin-3-yl 7-(3-{[3-(trifluoromethyl)benzoyl]amino}phenyl)pyrazolo[1,5-a]pyrimidine-3-carboxylate] |
| 7.07 | 54 |  |  | CN(C)CCOC(=O)c1cnn2c(-c3cccc(NC(=O)c4cccc(C(F)(F)F)c4)c3)ccnc12 [Example 127, 2-(dimethylamino)ethyl 7-(3-{[3-(trifluoromethyl)benzoyl]amino}phenyl)pyrazolo[1,5-a]pyrimidine-3-carboxylate] |
| 0.116 | 68 |  |  | COCCOC(=O)c1cnn2c(-c3cccc(NC(=O)c4cccc(C(F)(F)F)c4)c3)ccnc12 [Example 128, 2-methoxyethyl 7-(3-{[3-(trifluoromethyl)benzoyl]amino}phenyl)pyrazolo[1,5-a]pyrimidine-3-carboxylate] |
|  | 86 |  | 0.05 | O=C(Nc1cccc(-c2ccnc3cc(-c4ccncc4)nn23)c1)c1ccc(Cl)c(C(F)(F)F)c1 [Example 129, 4-chloro-N-[3-(2-pyridin-4-ylpyrazolo[1,5-a]pyrimidin-7-yl)phenyl]-3-(trifluoromethyl)benzamide] |
